Laboratory results: patent US9382197B2, “Substituted hydroxamic acids and uses thereof” (Millennium Pharmaceuticals, Inc., priority 2010, dated 2016)

Molecular target: T1, purified human HDAC6 (Homo sapiens, UniProt Q9UBN7)
T1 construct: purchased BPS Bioscience 5006
T1 sequence (Q9UBN7 1-1215): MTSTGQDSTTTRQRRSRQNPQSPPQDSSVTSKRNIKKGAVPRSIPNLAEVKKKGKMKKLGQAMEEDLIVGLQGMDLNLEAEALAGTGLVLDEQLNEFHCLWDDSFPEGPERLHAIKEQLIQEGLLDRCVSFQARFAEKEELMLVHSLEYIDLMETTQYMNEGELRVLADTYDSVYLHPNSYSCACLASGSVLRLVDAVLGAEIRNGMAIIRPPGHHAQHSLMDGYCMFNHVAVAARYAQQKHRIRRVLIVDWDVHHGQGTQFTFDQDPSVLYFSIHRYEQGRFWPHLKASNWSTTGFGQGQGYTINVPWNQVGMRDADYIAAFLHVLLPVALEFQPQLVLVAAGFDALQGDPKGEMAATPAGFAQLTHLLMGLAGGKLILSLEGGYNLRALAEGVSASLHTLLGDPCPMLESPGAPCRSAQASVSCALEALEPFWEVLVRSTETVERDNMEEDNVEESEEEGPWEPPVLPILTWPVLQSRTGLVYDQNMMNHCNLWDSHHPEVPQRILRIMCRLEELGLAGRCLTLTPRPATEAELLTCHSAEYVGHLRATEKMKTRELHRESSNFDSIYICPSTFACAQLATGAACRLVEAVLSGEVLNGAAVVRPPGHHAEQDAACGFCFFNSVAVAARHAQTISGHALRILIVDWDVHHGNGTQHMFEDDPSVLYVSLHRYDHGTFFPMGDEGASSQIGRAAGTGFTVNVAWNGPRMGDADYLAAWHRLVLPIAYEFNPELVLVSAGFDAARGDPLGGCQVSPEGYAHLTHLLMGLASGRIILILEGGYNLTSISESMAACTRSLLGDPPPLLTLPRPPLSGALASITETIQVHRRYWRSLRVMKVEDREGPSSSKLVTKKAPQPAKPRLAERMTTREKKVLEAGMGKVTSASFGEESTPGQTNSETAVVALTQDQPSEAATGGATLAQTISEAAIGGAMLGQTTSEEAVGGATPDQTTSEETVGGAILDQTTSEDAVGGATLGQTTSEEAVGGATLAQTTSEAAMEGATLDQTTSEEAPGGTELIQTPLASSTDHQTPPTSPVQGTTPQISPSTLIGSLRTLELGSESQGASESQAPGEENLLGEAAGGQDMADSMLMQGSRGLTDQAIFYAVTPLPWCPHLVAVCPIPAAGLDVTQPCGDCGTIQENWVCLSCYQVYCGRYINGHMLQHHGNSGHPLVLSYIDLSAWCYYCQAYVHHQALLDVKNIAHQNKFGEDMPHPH
Assay: HDAC6 Enzyme Assay
Format: biochemical
Outline: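 Purified human HDAC6 incubated 1 h at 30 °C with Ac-Arg-Gly-Lys(Ac)-AMC and compound; trichostatin A stop, trypsin release of AMC, fluorescence Ex 340/Em 460 nm. IC50 from concentration–response relative to DMSO.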

[1] = bin: greater than 500 nM and less than 1 μM (lower bound in nM, upper bound in μM)
[2] = purified human HDAC6, substrate Ac-Arg-Gly-Lys(Ac)-AMC, 1 hour at 30° C., reported as bins

| IC50 [2] [nM] | SMILES | further results |
| --- | --- | --- |
|  | CC(C)(C)C(NC(=O)C12CC3CC(CC(C3)C1)C2)c1ccc(C(=O)NO)cc1 (stereo not shown) [Compound I-162, N-(1-{4-[(hydroxyamino)carbonyl]phenyl}-2,2-dimethylpropyl)adamantane-1-carboxamide] | IC50 (bin: greater than 1 μM): > 1000 nM |
|  | CC(NC(=O)c1ccc(C(C)(C)C)cc1)c1cccc(C(=O)NO)c1 (stereo not shown) [Compound I-268, 3-{1-[(4-tert-butylbenzoyl)amino]ethyl}-N-hydroxybenzamide] | IC50 [1]: 500 to 1000 nM |
| < 100 | CC(C)C(NC(=O)c1nc2ccccc2s1)c1ccc(C(=O)NO)cc1 (stereo not shown) [Compound I-191, N-(1-{4-[(hydroxyamino)carbonyl]phenyl}-2-methylpropyl)-1,3-benzothiazole-2-carboxamide] |  |
| < 100 | CC(C)[C@@H](NC(=O)c1cc(Cl)c(Cl)n1C)c1ccc(C(=O)NO)cc1 [Compound I-96, 4,5-dichloro-N-((1R)-1-{4-[(hydroxyamino)carbonyl]phenyl}-2-methylpropyl)-1-methyl-1H-pyrrole-2-carboxamide] |  |
|  | CC(NC(=O)c1ccn(C)n1)c1cccc(C(=O)NO)c1 (stereo not shown) [Compound I-81, N-(1-{3-[(hydroxyamino)carbonyl]phenyl}ethyl)-1-methyl-1H-pyrazole-3-carboxamide] | IC50 [1]: 500 to 1000 nM |
| < 100 | CC(NC(=O)c1ccc2ncsc2c1)c1ccc(C(=O)NO)cc1 (stereo not shown) [Compound I-360, N-(1-{4-[(hydroxyamino)carbonyl]phenyl}ethyl)-1,3-benzothiazole-6-carboxamide] |  |
| 100 to 500 | Cc1cc(C)c(S(=O)(=O)NC(C)c2ccc(C(=O)NO)cc2)c(C)c1 (stereo not shown) [Compound I-176, N-hydroxy-4-{1-[(mesitylsulfonyl)amino]ethyl}benzamide] |  |
| < 100 | C[C@@H](NC(=O)C(C)(C)C)c1ccc(C(=O)NO)cc1 [Compound I-73, 4-{(1R)-1-[(2,2-dimethylpropanoyl)amino]ethyl}-N-hydroxybenzamide] |  |
|  | CC(NC(=O)c1cc(Cl)c(Cl)n1C)c1cccc(C(=O)NO)c1 (stereo not shown) [Compound I-39, 4,5-dichloro-N-(1-{3-[(hydroxyamino)carbonyl]phenyl}ethyl)-1-methyl-1H-pyrrole-2-carboxamide] | IC50 (bin: greater than 1 μM): > 1000 nM |
|  | CC(NC(=O)c1cnnc2ccccc12)c1ccc(C(=O)NO)cc1 (stereo not shown) [Compound I-56, N-(1-{4-[(hydroxyamino)carbonyl]phenyl}ethyl)cinnoline-4-carboxamide] | IC50 (bin: greater than 1 μM): > 1000 nM |
| < 100 | CC(C)Oc1ccc(C(=O)NC(C)c2ccc(C(=O)NO)cc2)cc1 (stereo not shown) [Compound I-38, N-(1-{4-[(hydroxyamino)carbonyl]phenyl}ethyl)-4-isopropoxybenzamide] |  |
|  | CC(NC(=O)c1ccc(C(F)(F)F)cc1)c1cccc(C(=O)NO)c1 (stereo not shown) [Compound I-151, N-hydroxy-3-(1-{[4-(trifluoromethyl)benzoyl]amino}ethyl)benzamide] | IC50 [1]: 500 to 1000 nM |
| < 100 | Cc1ccc2[nH]c(C(=O)NC(c3ccc(C(=O)NO)cc3)C(C)(C)C)cc2c1 (stereo not shown) [Compound I-129, N-(1-{4-[(hydroxyamino)carbonyl]phenyl}-2,2-dimethylpropyl)-5-methyl-1H-indole-2-carboxamide] |  |
|  | CC(NC(=O)c1ccccc1C(F)(F)F)c1cccc(C(=O)NO)c1 (stereo not shown) [Compound I-57, N-(1-{3-[(hydroxyamino)carbonyl]phenyl}ethyl)-2-(trifluoromethyl)benzamide] | IC50 (bin: greater than 1 μM): > 1000 nM |
| 100 to 500 | COc1ccc(C(=O)NC(C)c2cccc(C(=O)NO)c2)cc1 (stereo not shown) [Compound I-202, N-hydroxy-3-{1-[(4-methoxybenzoyl)amino]ethyl}benzamide] |  |
| 100 to 500 | CC(C)(C)C(NC(=O)c1cscn1)c1ccc(C(=O)NO)cc1 (stereo not shown) [Compound I-123, N-(1-{4-[(hydroxyamino)carbonyl]phenyl}-2,2-dimethylpropyl)-1,3-thiazole-4-carboxamide] |  |
| 100 to 500 | C[C@@H](NC(=O)c1ccc(-c2ccccc2)cc1)c1cccc(C(=O)NO)c1 [Compound I-121, N-((1R)-1-{3-[(hydroxyamino)carbonyl]phenyl}ethyl)biphenyl-4-carboxamide] |  |

| IC50 [2] [nM] | SMILES | further results |
| --- | --- | --- |
| < 100 | CC(NC(=O)c1ccc(-n2cccn2)cc1)c1ccc(C(=O)NO)cc1 (stereo not shown) [Compound I-185, N-(1-{4-[(hydroxyamino)carbonyl]phenyl}ethyl)-4-(1H-pyrazol-1-yl)benzamide] |  |
|  | COc1cc(C(=O)NO)ccc1C(C)NC(=O)C12CC3CC(CC(C3)C1)C2 (stereo not shown) [Compound I-483, N-(1-{4-[(hydroxyamino)carbonyl]-2-methoxyphenyl}ethyl)adamantane-1-carboxamide] | IC50 (bin: greater than 1 μM): > 1000 nM |
| < 100 | COc1cccc2cc(C(=O)NC(c3ccc(C(=O)NO)cc3)C(C)C)oc12 (stereo not shown) [Compound I-306, N-(1-{4-[(hydroxyamino)carbonyl]phenyl}-2-methylpropyl)-7-methoxy-1-benzofuran-2-carboxamide] |  |
|  | CC(NC(=O)c1cc2oc(-c3ccccc3)cc2n1C)c1cccc(C(=O)NO)c1 (stereo not shown) [Compound I-180, N-(1-{3-[(hydroxyamino)carbonyl]phenyl}ethyl)-4-methyl-2-phenyl-4H-furo[3,2-b]pyrrole-5-carboxamide] | IC50 (bin: greater than 1 μM): > 1000 nM |
| < 100 | CC(NC(=O)CC1Cc2ccccc2C1)c1ccc(C(=O)NO)cc1 (stereo not shown) [Compound I-357, 4-{1-[(2,3-dihydro-1H-inden-2-ylacetyl)amino]ethyl}-N-hydroxybenzamide] |  |
| < 100 | CC(C)c1cc(C(=O)NC(C)c2ccc(C(=O)NO)cc2)n(C)n1 (stereo not shown) [Compound I-186, N-(1-{4-[(hydroxyamino)carbonyl]phenyl}ethyl)-3-isopropyl-1-methyl-1H-pyrazole-5-carboxamide] |  |
|  | Cc1noc(C)c1C(=O)NC(C)c1ccc(C(=O)NO)cc1 (stereo not shown) [Compound I-326, N-(1-{4-[(hydroxyamino)carbonyl]phenyl}ethyl)-3,5-dimethylisoxazole-4-carboxamide] | IC50 (bin: greater than 1 μM): > 1000 nM |
| 100 to 500 | O=C(NO)c1ccc([C@H](NC(=O)C23CC4CC(CC(C4)C2)C3)c2ccccc2)cc1 [Compound I-336, N-[(R)-{4-[(hydroxyamino)carbonyl]phenyl}(phenyl)methyl]adamantane-1-carboxamide] |  |
| 100 to 500 | CC(C)(C)c1ccc(C(=O)NC(c2ccc(C(=O)NO)cc2)C(C)(C)C)cc1 (stereo not shown) [Compound I-377, 4-tert-butyl-N-(1-{4-[(hydroxyamino)carbonyl]phenyl}-2,2-dimethylpropyl)benzamide] |  |
| 100 to 500 | CC(NC(=O)c1c[nH]c2ccccc12)c1cccc(C(=O)NO)c1 (stereo not shown) [Compound I-10, N-(1-{3-[(hydroxyamino)carbonyl]phenyl}ethyl)-1H-indole-3-carboxamide] |  |
| 100 to 500 | C[C@@H](NC(=O)C1(C)CCNCC1)c1ccc(C(=O)NO)cc1 [Compound I-487, N-((1R)-1-{4-[(hydroxyamino)carbonyl]phenyl}ethyl)-4-methylpiperidine-4-carboxamide] |  |
| < 100 | C[C@@H](NC(=O)c1cc2ccccc2s1)c1cccc(C(=O)NO)c1 [Compound I-321, N-((1R)-1-{3-[(hydroxyamino)carbonyl]phenyl}ethyl)-1-benzothiophene-2-carboxamide] |  |
| 100 to 500 | O=C(NO)c1ccc([C@@H](NC(=O)c2cc3ccccc3s2)C2CC2)cc1 [Compound I-249, N-((S)-cyclopropyl{4-[(hydroxyamino)carbonyl]phenyl}methyl)-1-benzothiophene-2-carboxamide] |  |
| 100 to 500 | CC(NS(=O)(=O)c1ccc(Cl)cc1)c1ccc(C(=O)NO)cc1 (stereo not shown) [Compound I-302, 4-(1-{[(4-chlorophenyl)sulfonyl]amino}ethyl)-N-hydroxybenzamide] |  |
|  | C[C@H](NC(=O)C1(C)CCCCC1)c1ccc(C(=O)NO)cc1 [Compound I-273, N-hydroxy-4-((1S)-1-{[(1-methylcyclohexyl)carbonyl]amino}ethyl)benzamide] | IC50 [1]: 500 to 1000 nM |
|  | CC(C)C(NC(=O)c1cc2ccccc2s1)c1cccc(C(=O)NO)c1 (stereo not shown) [Compound I-390, N-(1-{3-[(hydroxyamino)carbonyl]phenyl}-2-methylpropyl)-1-benzothiophene-2-carboxamide] | IC50 (bin: greater than 1 μM): > 1000 nM |
|  | C[C@@H](NC(=O)C1(C)CCCCC1)c1cccc(C(=O)NO)c1 [Compound I-283, N-hydroxy-3-((1R)-1-{[(1-methylcyclohexyl)carbonyl]amino}ethyl)benzamide] | IC50 (bin: greater than 1 μM): > 1000 nM |
